The text below walks through data of ChEMBL document CHEMBL4311945, “Development of Dual Chitinase Inhibitors as Potential New Treatment for Respiratory System Diseases” (J Med Chem, 2019).

Molecules are shown by their SMILES.

Data set [1] addresses Acidic mammalian chitinase (Mus musculus, UniProt Q91XA9). Nature of the data set: Inhibition of full-length C-terminal his-tagged mouse acidic mammalian chitinase expressed in CHO-K1 cells assessed as reduction in chitinolytic activity using 4-methylumbelliferyl-beta-D-N,N'-diacetylchitobioside hydrate as substrate after 60 mins by fluorometric assay.
The nature of data set [2]: Lipophilicity, logD of the compound at pH 7.4. Type of data set: physicochemical. Particulars: buffer.
Data set [3] deals with Chitotriosidase-1 (Homo sapiens, UniProt Q13231). In words: Inhibition of full-length C-terminal his-tagged human CHIT1 expressed in CHOK1 cells assessed as reduction in chitinolytic activity using 4-methylumbelliferyl-beta-D-N,N',N\"-triacetylchitotrioside as substrate after 60 mins by fluorometric assay. Type of data set: cell-based.
Data set [4] addresses dopamine transporter (DAT) (Homo sapiens, UniProt Q01959). Nature of the data set: Displacement of [3H]BTCP from recombinant human dopamine transporter at 10 uM after 120 mins by scintillation counting analysis relative to control. The data set is classed as ADME. Particulars: probe [3H]BTCP.
Data set [5] deals with Chitotriosidase-1 (Mus musculus, UniProt Q9D7Q1). In words: Inhibition of full-length C-terminal his-tagged mouse CHIT1 expressed in CHO-K1 cells assessed as reduction in chitinolytic activity using 4-methylumbelliferyl-beta-D-N,N',N\"-triacetylchitotrioside as substrate after 60 mins by fluorometric assay. Type of data set: cell-based.
The target of data set [6] is Voltage-gated inwardly rectifying potassium channel KCNH2 (Homo sapiens, UniProt Q12809). Nature of the data set: Displacement of Tracer Red from human ERG by fluorescence polarization assay. For orientation: Fluorescence polarisation rises when a labelled molecule tumbles more slowly, as on binding a larger partner.
The target of data set [7] is Acidic mammalian chitinase (Homo sapiens, UniProt Q9BZP6). Nature of the data set: Inhibition of full-length C-terminal his-tagged human acidic mammalian chitinase expressed in CHOK1 cells assessed as reduction in chitinolytic activity using 4-methylumbelliferyl-beta-D-N,N-diacetylchitobioside hydrate as substrate after 60 mins by fluorometric assay.
Chain of Acidic mammalian chitinase (Homo sapiens, UniProt Q9BZP6) (Q9BZP6 whole entry): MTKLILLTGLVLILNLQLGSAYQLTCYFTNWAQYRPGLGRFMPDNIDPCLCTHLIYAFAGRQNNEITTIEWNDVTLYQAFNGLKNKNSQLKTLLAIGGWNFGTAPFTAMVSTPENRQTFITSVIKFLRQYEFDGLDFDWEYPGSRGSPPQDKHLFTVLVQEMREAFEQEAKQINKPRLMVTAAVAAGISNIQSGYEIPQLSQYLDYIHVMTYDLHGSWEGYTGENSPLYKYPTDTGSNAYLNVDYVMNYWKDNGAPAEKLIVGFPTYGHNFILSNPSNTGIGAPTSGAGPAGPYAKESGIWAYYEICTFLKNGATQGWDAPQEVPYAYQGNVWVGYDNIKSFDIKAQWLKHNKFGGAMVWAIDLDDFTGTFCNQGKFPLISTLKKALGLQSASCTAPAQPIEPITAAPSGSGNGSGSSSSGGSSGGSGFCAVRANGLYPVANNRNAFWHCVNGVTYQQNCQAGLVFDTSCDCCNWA

Chain of Acidic mammalian chitinase (Mus musculus, UniProt Q91XA9) (Q91XA9 whole entry): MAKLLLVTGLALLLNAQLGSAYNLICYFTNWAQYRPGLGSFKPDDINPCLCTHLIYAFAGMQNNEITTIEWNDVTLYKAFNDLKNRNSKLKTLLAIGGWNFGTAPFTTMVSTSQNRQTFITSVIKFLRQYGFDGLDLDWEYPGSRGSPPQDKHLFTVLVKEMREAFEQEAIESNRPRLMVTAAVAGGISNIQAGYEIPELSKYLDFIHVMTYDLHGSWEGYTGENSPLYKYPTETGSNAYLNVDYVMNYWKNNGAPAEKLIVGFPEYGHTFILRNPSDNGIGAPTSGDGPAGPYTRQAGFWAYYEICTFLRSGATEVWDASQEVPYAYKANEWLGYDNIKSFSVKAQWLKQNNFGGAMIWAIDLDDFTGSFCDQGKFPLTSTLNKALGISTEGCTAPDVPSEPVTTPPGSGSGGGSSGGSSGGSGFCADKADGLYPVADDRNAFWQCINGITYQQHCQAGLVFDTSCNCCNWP
Chain of Chitotriosidase-1 (Mus musculus, UniProt Q9D7Q1) (Q9D7Q1 whole entry): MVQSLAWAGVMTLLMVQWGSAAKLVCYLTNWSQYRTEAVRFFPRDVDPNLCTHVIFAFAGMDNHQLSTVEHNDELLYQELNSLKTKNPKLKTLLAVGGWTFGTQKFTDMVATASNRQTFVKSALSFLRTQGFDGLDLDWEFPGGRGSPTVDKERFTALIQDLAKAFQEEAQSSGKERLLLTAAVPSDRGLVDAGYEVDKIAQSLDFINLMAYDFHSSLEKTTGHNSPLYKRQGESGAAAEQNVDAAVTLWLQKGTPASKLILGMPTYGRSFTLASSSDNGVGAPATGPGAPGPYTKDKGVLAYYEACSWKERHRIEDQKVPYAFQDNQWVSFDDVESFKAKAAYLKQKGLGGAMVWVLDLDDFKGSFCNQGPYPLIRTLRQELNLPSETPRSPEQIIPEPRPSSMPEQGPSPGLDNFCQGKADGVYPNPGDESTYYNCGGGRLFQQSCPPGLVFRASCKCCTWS
Chain of Voltage-gated inwardly rectifying potassium channel KCNH2 (Q12809 whole entry): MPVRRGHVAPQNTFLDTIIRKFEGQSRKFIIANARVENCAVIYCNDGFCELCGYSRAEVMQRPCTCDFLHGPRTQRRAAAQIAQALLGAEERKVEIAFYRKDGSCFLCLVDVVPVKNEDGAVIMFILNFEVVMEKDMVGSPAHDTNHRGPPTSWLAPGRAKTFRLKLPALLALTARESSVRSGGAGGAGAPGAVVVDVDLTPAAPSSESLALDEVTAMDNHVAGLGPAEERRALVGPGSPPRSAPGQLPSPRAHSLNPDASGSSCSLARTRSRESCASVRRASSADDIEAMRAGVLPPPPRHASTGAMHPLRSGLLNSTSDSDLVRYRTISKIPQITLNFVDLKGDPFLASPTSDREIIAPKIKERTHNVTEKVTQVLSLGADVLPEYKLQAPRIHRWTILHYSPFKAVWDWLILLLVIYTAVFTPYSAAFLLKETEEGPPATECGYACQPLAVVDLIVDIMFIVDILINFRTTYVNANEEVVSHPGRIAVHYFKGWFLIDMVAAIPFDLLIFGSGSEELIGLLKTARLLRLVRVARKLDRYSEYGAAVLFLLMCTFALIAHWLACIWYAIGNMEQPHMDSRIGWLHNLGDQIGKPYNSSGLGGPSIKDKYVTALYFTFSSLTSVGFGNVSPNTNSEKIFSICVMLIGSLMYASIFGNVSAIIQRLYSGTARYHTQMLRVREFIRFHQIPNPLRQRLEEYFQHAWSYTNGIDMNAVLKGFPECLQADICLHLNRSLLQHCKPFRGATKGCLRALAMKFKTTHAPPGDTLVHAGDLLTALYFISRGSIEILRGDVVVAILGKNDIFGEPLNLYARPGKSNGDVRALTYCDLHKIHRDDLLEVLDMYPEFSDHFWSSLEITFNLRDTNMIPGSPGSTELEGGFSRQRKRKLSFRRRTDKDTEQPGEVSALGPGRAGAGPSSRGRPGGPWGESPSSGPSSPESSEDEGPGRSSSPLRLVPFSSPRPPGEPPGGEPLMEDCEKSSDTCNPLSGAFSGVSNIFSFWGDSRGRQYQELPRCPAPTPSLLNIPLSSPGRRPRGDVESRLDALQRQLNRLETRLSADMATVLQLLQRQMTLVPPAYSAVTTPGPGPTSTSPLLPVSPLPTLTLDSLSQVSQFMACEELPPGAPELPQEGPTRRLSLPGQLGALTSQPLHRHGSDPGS
Chain of Chitotriosidase-1 (Homo sapiens, UniProt Q13231) (Q13231 whole entry): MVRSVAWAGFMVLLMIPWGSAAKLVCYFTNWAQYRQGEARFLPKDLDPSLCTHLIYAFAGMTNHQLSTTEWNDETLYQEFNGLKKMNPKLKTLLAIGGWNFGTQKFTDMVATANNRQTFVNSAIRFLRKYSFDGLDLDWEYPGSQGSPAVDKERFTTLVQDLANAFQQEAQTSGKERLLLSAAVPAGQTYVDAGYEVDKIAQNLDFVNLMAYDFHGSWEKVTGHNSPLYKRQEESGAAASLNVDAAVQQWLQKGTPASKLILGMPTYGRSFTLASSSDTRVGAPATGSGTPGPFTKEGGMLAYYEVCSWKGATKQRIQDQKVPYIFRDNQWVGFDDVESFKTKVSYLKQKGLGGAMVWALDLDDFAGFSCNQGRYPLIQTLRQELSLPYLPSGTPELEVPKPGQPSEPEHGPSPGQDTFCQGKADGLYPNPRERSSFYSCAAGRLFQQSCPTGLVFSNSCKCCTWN
Chain of dopamine transporter (DAT) (Q01959 whole entry): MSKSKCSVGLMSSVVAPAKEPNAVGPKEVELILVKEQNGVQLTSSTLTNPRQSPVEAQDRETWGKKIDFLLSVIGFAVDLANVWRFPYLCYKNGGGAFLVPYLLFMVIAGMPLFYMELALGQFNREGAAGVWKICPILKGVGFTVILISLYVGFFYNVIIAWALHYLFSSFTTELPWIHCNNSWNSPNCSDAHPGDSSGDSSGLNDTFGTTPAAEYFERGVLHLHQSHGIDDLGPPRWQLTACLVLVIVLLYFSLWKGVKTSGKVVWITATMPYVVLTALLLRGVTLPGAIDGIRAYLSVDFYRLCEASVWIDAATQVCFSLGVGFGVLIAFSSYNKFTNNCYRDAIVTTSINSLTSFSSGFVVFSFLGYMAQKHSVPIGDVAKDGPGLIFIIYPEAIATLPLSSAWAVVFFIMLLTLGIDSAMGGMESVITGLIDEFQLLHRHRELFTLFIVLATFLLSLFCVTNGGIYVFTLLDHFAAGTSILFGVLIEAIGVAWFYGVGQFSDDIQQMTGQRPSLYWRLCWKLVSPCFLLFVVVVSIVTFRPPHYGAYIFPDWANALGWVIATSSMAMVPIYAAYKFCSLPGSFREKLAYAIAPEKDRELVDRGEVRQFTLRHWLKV

As for `CO[C@H]1C[C@H](Cc2ccc(Cl)cc2)N(C2CCN(c3nnc(N)[nH]3)CC2)C1`, the IC50 in data set [1] is 65 nM; on Chitotriosidase-1 [3] it was 47 nM; on Chitotriosidase-1 [5], 345 nM. The same compound came in with a pH-dependent lipophilicity (logD) in data set [2] of 1.6. Besides, the inhibition at 2 h, 10 µM in data set [4] was 59%.

With `Nc1n[nH]c(N2CCC(N(CCc3ccc(Cl)cc3)C3COC3)CC2)n1`, the half-maximal inhibitory concentration (IC50) in data set [1] worked out at 27 nM; in data set [6], 4400 nM; on Chitotriosidase-1 [3], 180 nM; on Chitotriosidase-1 [5], 5500 nM.

As to `Nc1n[nH]c(N2CCC(N(CCO)CCc3ccc(Cl)cc3)CC2)n1`, the concentration for half-maximal inhibition (IC50) in data set [1] was determined as 135 nM; in data set [6], 6300 nM; on Chitotriosidase-1 [3] it was 384 nM; on Chitotriosidase-1 [5], 4800 nM.

With `CNS(=O)(=O)CCN(CCc1ccc(Cl)cc1)C1CCN(c2nc(N)n[nH]2)CC1`, the IC50 in data set [1] came out at 21 nM; at Chitotriosidase-1 [3] it was 870 nM; on Chitotriosidase-1 [5], 7550 nM. Also, in data set [4], the inhibition at 2 h, 10 µM was determined as 13%.

In the case of `C[C@@H](O)CN(CCc1ccc(Cl)cc1)C1CCN(c2nc(N)n[nH]2)CC1`, the 50% inhibitory concentration (IC50) in data set [6] was found to be 6100 nM; on Chitotriosidase-1 [3], 330 nM; on Chitotriosidase-1 [5], 6800 nM.

As to `CNC(=O)CN(CCc1ccc(Cl)cc1)C1CCN(c2nc(N)n[nH]2)CC1`, the IC50 worked out at 1150 nM in data set [1], 2600 nM in data set [6], 1800 nM on Chitotriosidase-1 [3] and 48000 nM at Chitotriosidase-1 [5].

`Nc1nnc(N2CCC(N3CCC[C@@H]3Cc3ccc(Cl)cc3)CC2)[nH]1`: the results for the IC50 (in data set [1]; in data set [6]; on Chitotriosidase-1 [5]) were 120 nM, 4000 nM and 430 nM, respectively. The same compound returned a logD in data set [2] of 1.15.

Take `CS(=O)(=O)NCCN(CCc1ccc(Cl)cc1)C1CCN(c2nc(N)n[nH]2)CC1`: the 50% inhibitory concentration (IC50) turned out to be 22 nM in data set [1], 7200 nM in data set [6], 1200 nM at Chitotriosidase-1 [3] and 12500 nM at Chitotriosidase-1 [5]. Moreover, the inhibition at 2 h, 10 µM in data set [4] was found to be 4%.

For the compound `Nc1nc(N2CCC(N3C[C@H](O)C[C@@H]3Cc3ccc(Cl)cc3)CC2)n[nH]1`, the IC50 in data set [1] came out at 68 nM; in data set [6], 55000 nM; at Chitotriosidase-1 [5], 135 nM. Besides, the pH-dependent lipophilicity (logD) in data set [2] came out at 0.68.

For the compound `Nc1n[nH]c(N2CCC(N(CCc3ccc(Cl)cc3)CC3CCCCO3)CC2)n1` (configuration not stated), the IC50 in data set [1] amounted to 56 nM; in data set [6] it was 11000 nM; on Chitotriosidase-1 [3], 21 nM; at Chitotriosidase-1 [5], 750 nM. The inhibition at 2 h, 10 µM in data set [4] is 50%.

For the compound `Nc1n[nH]c(N2CCC(N3CCCC(c4ccc(Cl)cc4)C3)CC2)n1` (configuration not stated), the IC50 in data set [1] stood at 335 nM; at Chitotriosidase-1 [3] it was 1850 nM; at Chitotriosidase-1 [5], 19000 nM.

Consider `Nc1nnc(N2CCC(N3CCCC[C@@H]3Cc3ccc(Cl)cc3)CC2)[nH]1`, for which the IC50 in data set [1] amounted to 81 nM; in data set [6], 8300 nM; in data set [7], 23 nM; at Chitotriosidase-1 [3], 41 nM; at Chitotriosidase-1 [5] it was 87 nM. In data set [2], the logD turned out to be 1.41.

For the compound `COCCN(CCc1ccc(Cl)cc1)C1CCN(c2nc(N)n[nH]2)CC1`, the half-inhibitory concentration (IC50) was found to be 55 nM in data set [1], 2800 nM in data set [6], 84 nM at Chitotriosidase-1 [3] and 1700 nM at Chitotriosidase-1 [5].

With `CO[C@@H](C)CN(CCc1ccc(Cl)cc1)C1CCN(c2nc(N)n[nH]2)CC1`, the half-maximal inhibitory concentration (IC50) was determined as 53 nM in data set [1], 17600 nM in data set [6], 44 nM at Chitotriosidase-1 [3] and 1150 nM at Chitotriosidase-1 [5]. In addition, the inhibition at 2 h, 10 µM in data set [4] is 33%.

For `CNC(=O)NCCN(CCc1ccc(Cl)cc1)C1CCN(c2nc(N)n[nH]2)CC1`, the IC50 in data set [1] came out at 130 nM; in data set [6], 1800 nM; at Chitotriosidase-1 [3], 1430 nM; at Chitotriosidase-1 [5], 9100 nM.

Regarding `CO[C@H]1CN(C2CCN(c3nnc(N)[nH]3)CC2)[C@H]1Cc1ccc(Cl)cc1`, the IC50 worked out at 485 nM in data set [1], 340 nM in data set [6], 580 nM on Chitotriosidase-1 [3] and 5550 nM at Chitotriosidase-1 [5]. For the same compound, the logD in data set [2] came out at 1.55.

In the case of `CO[C@@H]1C[C@H](Cc2ccc(Cl)cc2)N(C2CCN(c3n[nH]c(N)n3)CC2)C1`, the results for the IC50 (in data set [1]; at Chitotriosidase-1 [3]; on Chitotriosidase-1 [5]) were 21 nM, 44 nM and 255 nM, respectively. Moreover, the logD in data set [2] was 1.56.

Consider `Nc1n[nH]c(N2CCC(N3CCC(c4ccc(Cl)cc4)C3)CC2)n1` (configuration not stated), for which the IC50 in data set [1] is 2600 nM; at Chitotriosidase-1 [3], 19500 nM; on Chitotriosidase-1 [5], 37000 nM.

Turning to `CO[C@H](C)CN(CCc1ccc(Cl)cc1)C1CCN(c2nc(N)n[nH]2)CC1`, the concentration for half-maximal inhibition (IC50) in data set [1] worked out at 110 nM; in data set [6] it was 6400 nM; on Chitotriosidase-1 [3], 530 nM; on Chitotriosidase-1 [5], 12500 nM.

Regarding `Nc1n[nH]c(N2CCC(N(CCc3ccc(Cl)cc3)CC3CCCO3)CC2)n1` (configuration not stated), the IC50 in data set [1] is 17 nM; in data set [6], 15000 nM; at Chitotriosidase-1 [3], 27 nM; on Chitotriosidase-1 [5], 1080 nM. For the same compound, the inhibition at 2 h, 10 µM in data set [4] came out at 74%.

`COC(C)(C)CN(CCc1ccc(Cl)cc1)C1CCN(c2nc(N)n[nH]2)CC1`: the 50% inhibitory concentration (IC50) came out at 3500 nM in data set [6], 505 nM on Chitotriosidase-1 [3] and 3650 nM on Chitotriosidase-1 [5].

For the compound `CC(C)(O)CN(CCc1ccc(Cl)cc1)C1CCN(c2nc(N)n[nH]2)CC1`, the IC50 was determined as 73 nM in data set [1], 19000 nM in data set [6], 395 nM on Chitotriosidase-1 [3] and 4700 nM at Chitotriosidase-1 [5].

Turning to `C[C@H](O)CN(CCc1ccc(Cl)cc1)C1CCN(c2nc(N)n[nH]2)CC1`, the IC50 in data set [6] came out at 14000 nM; at Chitotriosidase-1 [3], 145 nM; on Chitotriosidase-1 [5] it was 2350 nM.

Take `Nc1nnc(N2CCC(N3C[C@@H](O)C[C@@H]3Cc3ccc(Cl)cc3)CC2)[nH]1`: the 50% inhibitory concentration (IC50) came out at 170 nM in data set [1], 13200 nM in data set [6] and 520 nM on Chitotriosidase-1 [5]. Also, the log distribution coefficient (logD) in data set [2] came out at 0.81.

In the case of `CC(=O)NCCN(CCc1ccc(Cl)cc1)C1CCN(c2nc(N)n[nH]2)CC1`, the IC50 in data set [1] turned out to be 35 nM; in data set [6], 3300 nM; at Chitotriosidase-1 [3] it was 495 nM; at Chitotriosidase-1 [5], 8100 nM.

For `Nc1n[nH]c(N2CCC(N(CCc3ccc(Cl)cc3)CC(=O)O)CC2)n1`, the IC50 worked out at 395 nM in data set [1], 8000 nM in data set [6], 1900 nM on Chitotriosidase-1 [3] and 21000 nM at Chitotriosidase-1 [5].

A word on the IC50: it is the concentration at which inhibition is half-maximal. A word on the logD: it is lipophilicity at a set pH, counting ionised and neutral species. Higher therefore signals higher lipophilicity. The inhibition is the change of the read-out against control, counted positive when it falls.
